Patent publication US20140256756A1, “PIPERIDINYL-SUBSTITUTED LACTAMS AS GPR119 MODULATORS” (Array BioPharma Inc., priority 2011, published 2014)

Test system: modified version of the GPR119 receptor (94% identity to human receptor)
Experiment: cAMP production assay (LANCE cAMP kit, TR-FRET) in HEK-293 cells
Assay type: cell-based
Conditions: for cAMP production in HEK-293 cells: HEK-293 cells stably expressing modified GPR119, test compounds 0.2 nM to 10 μM, one-hour incubation; for Fold over baseline: increase in cAMP relative to basal levels, agonist activity if 1.5-fold or greater
Protocol: The assay utilized HEK-293 cells that stably express a modified version of the GPR119 receptor (94% identity to human receptor), under the control of a CMV promoter containing a tet-on element for tetracycline-inducible expression. GPR119 agonist-induced cyclic AMP (cAMP) production was measured in this cell line using the LANCE cAMP kit (Perkin Elmer, Waltham, Mass.). To generate a working stock of cells for the assay, cells were treated overnight with 1 μg/mL doxycycline at 37° C. in the presence of 5% CO2 to induce receptor expression. Cells were then harvested by enzymatic dissociation with 0.05% trypsin, resuspended in freezing medium (DMEM growth medium with 10% each of fetal bovine serum and DMSO), aliquoted and frozen at −80° C. On the day of the assay, frozen cells were thawed, washed 1× in PBS and resuspended in Hank's buffered salt solution (HBSS) containing 5 mM HEPES, 0.1% BSA and Alexa Fluor 647-conjugated anti-cAMP antibody (diluted 1:100). The cell suspension was then transferred to a Proxiplate Plus white 384-well assay plate (Perkin-Elmer) at 2000 cells/well. Test compounds at final concentrations ranging from 0.2 nM to 10 μM were added to the assay plate, followed by a one-hour incubation at ambient temperature (volume=10 μL/well). DMSO concentration was held constant at 0.5%. After incubation with test compounds, 10 μL, of a detergent buffer containing a biotinylated cAMP/Europium-conjugated streptavidin complex (Europium-labeled cAMP tracer) were added to each well on the assay plate, followed by a 2-hour incubation at ambient temperature. During this incubation cAMP released from lysed cells competes with the Europium-labeled cAMP tracer for binding to the Alexa Fluor 647-conjugated antibody. […] Cellular cAMP levels were then determined by interpolation of raw signal data using a cAMP standard curve. Compounds were determined to have agonist activity if they stimulated a 1.5-fold or greater increase in cAMP relative to basal levels.

SMILES | cAMP production in HEK-293 cells | Fold over baseline
CS(=O)(=O)c1ccc(N[C@H]2CCN(C3CCN(c4nc(C5CC5)ns4)CC3)C2=O)c(F)c1 [Example 23, (S)-1-(1-(3-cyclopropyl-1,2,4-thiadiazol-5-yl)piperidin-4-yl)-3-(2-fluoro-4-(methyl-sulfonyl)phenylamino) pyrrolidin-2-one] | 11.9 nmol | 2.9
CC(C)c1nsc(N2CCC(N3CCC(Cc4ccc(S(C)(=O)=O)cc4)C3=O)CC2)n1 (stereo not shown) [Example 92, 1-(1-(3-isopropyl-1,2,4-thiadiazol-5-yl)piperidin-4-yl)-3-(4-(methylsulfonyl)benzyl)pyrrolidin-2-one] | 18.4 nmol | 2.8
CC(C)c1nsc(N2CCC(N3CC[C@H](N(C)c4cc(F)c(S(C)(=O)=O)cc4F)C3=O)CC2)n1 [Example 26, (S)-3-((2,5-Difluoro-4-(methylsulfonyl)phenyl)(methyl)amino)-1-(1-(3-isopropyl-1,2,4-thiadiazol-5-yl)piperidin-4-yl)pyrrolidin-2-one] | 17.2 nmol | 3.9
CC(C)(C)c1nsc(N2CCC(N3CC[C@H](Nc4ccc(S(C)(=O)=O)cc4F)C3=O)CC2)n1 [Example 37, (S)-1-(1-(3-tert-butyl-1,2,4-thiadiazol-5-yl)piperidin-4-yl)-3-(2-fluoro-4-(methylsulfonyl)phenyl-amino)pyrrolidin-2-one] | 20.9 nmol | 3.2
CC(C)c1nsc(N2CCC(N3CC[C@@H](Nc4ccc(S(C)(=O)=O)cc4F)C3=O)CC2)n1 [Example 2, (R)-3-(2-fluoro-4-(methylsulfonyl)phenylamino)-1-(1-(3-isopropyl-1,2,4-thiadiazol-5-yl)piperidin-4-yl)pyrrolidin-2-one] | 21.9 nmol | 3.1
CC(C)(C)c1nsc(N2CCC(N3CC[C@H](Oc4ccc(S(C)(=O)=O)cc4F)C3=O)CC2)n1 [Example 35, (S)-1-(1-(3-tert-butyl-1,2,4-thiadiazol-5-yl)piperidin-4-yl)-3-(2-fluoro-4-(methylsulfonyl)phenoxy)pyrrolidin-2-one] | 26.1 nmol | 3.7
Cc1cc(O[C@H]2CCN(C3CCN(c4nc(C(C)C)ns4)CC3)C2=O)c(F)cc1C#N [Example 64, (S)-5-fluoro-4-(1-(1-(3-isopropyl-1,2,4-thiadiazol-5-yl)piperidin-4-yl)-2-oxopyrrolidin-3-yloxy)-2-methylbenzonitrile] | 30.8 nmol | 3.5
CCS(=O)(=O)c1ccc(OC2CCN(C3CCN(c4nc(C)ns4)CC3)C2=O)c(F)c1 (stereo not shown) [Example 66, 3-(4-(ethylsulfonyl)-2-fluorophenoxy)-1-(1-(3-methyl-1,2,4-thiadiazol-5-yl)piperidin-4-yl)pyrrolidin-2-one] | 8.6 nmol | 1.8
CS(=O)(=O)c1cc(F)c(O[C@H]2CCN(C3CCN(c4nnc(C(F)(F)F)s4)CC3)C2=O)cc1F [Example 96, (S)-3-(2,5-difluoro-4-(methylsulfonyl)phenoxy)-1-(1-(5-(trifluoromethyl)-1,3,4-thiadiazol-2-yl)piperidin-4-yl)pyrrolidin-2-one] | 14.2 nmol | 3.1
CCS(=O)(=O)c1ccc(OC2CCN(C3CCN(c4nc(CC(C)C)ns4)CC3)C2=O)c(F)c1 (stereo not shown) [Example 68, 3-(4-(ethylsulfonyl)-2-fluorophenoxy)-1-(1-(3-isobutyl-1,2,4-thiadiazol-5-yl)piperidin-4-yl)pyrrolidin-2-one] | 14.5 nmol | 3.1
CS(=O)(=O)c1ccc(O[C@H]2CCN(C3CCN(c4nc(Oc5ccccc5)ns4)CC3)C2=O)c(F)c1 [Example 74, (S)-3-(2-fluoro-4-(methylsulfonyl)phenoxy)-1-(1-(3-phenoxy-1,2,4-thiadiazol-5-yl)piperidin-4-yl)pyrrolidin-2-one] | 15.3 nmol | 4.2
CC(C)c1nsc(N2CCC(N3CC[C@H](Nc4ccc(S(C)(=O)=O)cn4)C3=O)CC2)n1 [Example 16, (S)-1-(1-(3-isopropyl-1,2,4-thiadiazol-5-yl)piperidin-4-yl)-3-(5-(methylsulfonyl)pyridin-2-ylamino)pyrrolidin-2-one] | 27.2 nmol | 3.7
CC(C)c1nsc(N2CCC(N3CC[C@H](Nc4cc(Cl)c(S(C)(=O)=O)cc4F)C3=O)CC2)n1 [Example 9, (S)-3-(5-chloro-2-fluoro-4-(methylsulfonyl)phenylamino)-1-(1-(3-isopropyl-1,2,4-thiadiazol-5-yl)piperidin-4-yl)pyrrolidin-2-one] | 16.0 nmol | 4.0
CC(C)c1nsc(N2CCC(N3CC[C@H](Nc4ccc(S(C)(=O)=O)c(Cl)c4)C3=O)CC2)n1 [Example 11, (S)-3-(3-chloro-4-(methylsulfonyl)phenylamino)-1-(1-(3-isopropyl-1,2,4-thiadiazol-5-yl)piperidin-4-yl)pyrrolidin-2-one] | 10.8 nmol | 3.0
COC(C)(C)c1nsc(N2CCC(N3CC[C@H](Oc4ccc(S(C)(=O)=O)cc4F)C3=O)CC2)n1 [Example 38, (S)-3-(2-fluoro-4-(methylsulfonyl)phenoxy)-1-(1-(3-(2-methoxypropan-2-yl)-1,2,4-thiadiazol-5-yl)piperidin-4-yl)pyrrolidin-2-one] | 42.1 nmol | 6.6
CC(C)Cc1nsc(N2CCC(N3CC[C@H](Oc4ccc(S(C)(=O)=O)cc4F)C3=O)CC2)n1 [Example 56, (S)-3-(2-fluoro-4-(methylsulfonyl)phenoxy)-1-(1-(3-isobutyl-1,2,4-thiadiazol-5-yl)piperidin-4-yl)pyrrolidin-2-one] | 17.4 nmol | 3.4
CC(C)c1nsc(N2CCC(N3CC[C@H](Nc4ccc(S(=O)(=O)C(C)C)cc4F)C3=O)CC2)n1 [Example 8, (S)-3-(2-fluoro-4-(isopropylsulfonyl)phenylamino)-1-(1-(3-isopropyl-1,2,4-thiadiazol-5-yl)piperidin-4-yl)pyrrolidin-2-one] | 37.6 nmol | 4.7
CS(=O)(=O)c1ccc(N[C@H]2CCN(C3CCN(c4nc(C(F)(F)F)ns4)CC3)C2=O)c(F)c1 [Example 90, (S)-3-(2-fluoro-4-(methylsulfonyl)phenylamino)-1-(1-(3-(trifluoromethyl)-1,2,4-thiadiazol-5-yl)piperidin-4-yl)pyrrolidin-2-one] | 8.5 nmol | 2.9
CC(C)c1nsc(N2CCC(N3CCCC(Oc4cc(F)c(S(C)(=O)=O)cc4F)C3=O)CC2)n1 (stereo not shown) [Example 85, 3-(2,5-Difluoro-4-(methylsulfonyl)phenoxy)-1′-(3-isopropyl-1,2,4-thiadiazol-5-yl)-[1,4′-bipiperidin]-2-one] | 16.2 nmol | 3.8
CS(=O)(=O)c1ccc(N[C@H]2CCCN(C3CCN(c4nc(C(F)(F)F)ns4)CC3)C2=O)c(F)c1 [Example 87, (S)-3-(2-fluoro-4-(methylsulfonyl)phenylamino)-1′-(3-(trifluoromethyl)-1,2,4-thiadiazol-5-yl)-[1,4′-bipiperidin]-2-one] | 13.6 nmol | 2.1
